{
  "source": "patent US20160000762A1",
  "about": "“IMPROVING COGNITIVE FUNCTION” (THE REGENTS OF THE UNIVERSITY OF CALIFORNIA, priority 2013, published 2016)",
  "key": {"[1]": {"assay": "Cerebrovascular permeability and pharmacokinetic analysis of BTA-EG4 in mice", "type": "in vivo, male CD-1 mice", "conditions": "10 mg/kg i.p.", "description": "Cerebrovascular permeability and pharmacokinetic analysis of BTA-EG4 in wild-type mice. The partitioning of BTA-EG4 between plasma and brain was studied in male CD-1 mice. The mice were dosed with 10 mg/kg (in 10% DMSO/90% PBS) intraparitoneally (IP, n=2 per time point) and the concentration of BTA-EG4 in the plasma and brain was measured over time. Blood was collected via cardiac puncture and was pooled in EDTA tubes, centrifuged, and the plasma isolated. The brain was collected from each mouse, snap frozen, and homogenized in 2 mL PBS. The concentration of BTA-EG4 in the plasma and brain at each time point was determined by LC/MS/MS and the concentrations of BTA-EG4 in the plasma and brain were plotted as a function of time. Pharmacokinetic parameters for the plasma and brain profile of BTA-EG4 were also calculated: half-life for BTA-EG4 in the plasma and brain (t1/2), the maximum concentration (Cmax) of BTA-EG4 in the plasma and brain, the area under the concentration-time curve (AUC), the brain-to-plasma ratio (BB), and the logarithmic brain-to-plasma ratio (Log BB)."}, "[2]": {"system": "RasGRF1, GluA1, GluA2, p-ERK, p-Elk", "assay": "Western blot of cortex and hippocampus, 3× Tg AD mice", "type": "in vivo", "description": "Western blot and analysis. 3× Tg AD mice were injected with 30 mg/kg BTA-EG4 or vehicle daily for 2 weeks. After 2 weeks, the cortex and hippocampus were dissected and homogenized with RIPA buffer. Brain lysates were reduced, boiled, and run on a polyacrylamide gel followed by transfer onto nitrocellulose membrane and incubation in the following primary antibodies: rabbit anti-RasGRF1 (Santa Cruz, C-20), rabbit anti-GluA1 (Millipore, ab1504),mouse anti-GluA2 (Neuromab), rabbit anti-p-ERK (Invitrogen, 36880), or p-Elk (Cell Signal, 9181). Primary antibodies were applied overnight, washed with TBS buffer (3 washes, 5 min each), and HRP conjugated secondary antibodies were applied for 1 h. After 1 h, membranes were washed with TBS buffer (3 washes, 5 min each) and proteins were visualized by affixing the blots to autoradiography film. The density of each band was then quantified using ImageJ software (National Institutes of Health, […].) as a percentage of control following normalization to β-actin."}, "RasGRF1, p-ERK, p-CREB": {"system": "RasGRF1, p-ERK, p-CREB", "assay": "Ras signaling immunofluorescence, primary hippocampal neurons", "type": "cell-based, Sprague-Dawley rats", "conditions": "5 μM", "description": "Primary neuron culture and immunostaining. Primary hippocampal neurons from E19 Sprague-Dawley rats were cultured at 150 cells/mm^2 as previously described (Pak et al., 2001). Neurons were transfected using Lipofectamine™ 2000 (Invitrogen, Carlsbad, Calif., USA) or calcium phosphate precipitation with GFP+PLL, GFP+APP shRNA, or GFP+APP and treated with BTA-EG4. The following antibodies were used: mouse anti-GFP (Novus Biologicals, 9F9.F9), rabbit anti-GFP (Invitrogen, A11122), rabbit anti-GluR1 (Calbiochem, PC246), mouse anti-GluR2 (BD Pharmagen, 556341), mouse anti-postsynaptic density (PSD)-95 (NeuroMabs, Davis, Calif., USA), mouse anti-Synaptophysin (Sigma Aldrich, s5768), rabbit APP N-terminal (Sigma-Aldrich, A8967), anti-Ras (BD Biosciences, 610001), anti-RasGRF1 (Santa Cruz, C-20; BD Biosciences, 610149), anti-ERK1/2 (Cell Signaling, 4695), anti-p-ERK1/2 (Invitrogen, 36880), anti-CREB (Cell Signaling, D76D11), anti-p-CREB (Millipore, 06-519), and mouse anti-c-Myc (Novus Biologicals, 9E10). Cultured hippocampal neuron images were acquired by LSM 510 laser scanning confocal microscope (Zeiss). Confocal zseries image stacks encompassing entire dendrite segments were analyzed using MetaMorph software (Universal Imaging Corporation, Downington, Pa., USA).\nWe next investigated the molecular mechanism by which BTA-EG4 may alter dendritic spine formation. Ras, a small GTPase, is involved in dendritic spine formation and synaptic delivery of AMPA receptors (Zhu et al., 2002; Lee et al., 2011). Moreover, abnormal Ras signaling is associated with neurodegenerative disease, causing cognitive impairments and learning deficits (Stornetta and Zhu, 2011). Thus, we initially investigated the effect of BTA-EG4 on Ras signaling by treating primary hippocampal neurons with BTA-EG4 (5 μM) or control for 24 hrs. […] Further, levels of active Ras were elevated following BTA-EG4 treatment (5 μM) in primary cortical neurons (FIG. 7C) and following BTA-EG4 treatment (30 mg/kg) in wild-type mice (FIG. 7D). We also examined whether BTA-EG4 can alter the activity of downstream Ras signaling proteins, including p-ERK and p-CREB.\nSince we observed that BTA-EG4 and APP could possibly regulate dendritic spine density through Ras-dependent mechanisms, we then examined whether BTA-EG4 requires APP to modulate Ras signaling. To test this hypothesis, primary hippocampal neurons were transfected with GFP and APP shRNA or GFP and APP, treated with control or BTA-EG4 (5 μM), then immunostained against RasGRF1 (FIGS. 9A, 9B)."}, "Ras": {"system": "Ras", "assay": "GST-Raf1-RBD pulldown of active Ras, APP knock-out mice", "type": "in vivo", "description": "GST-pull-down assay. To measure levels of active Ras, brain lysate homogenized with Ral buffer (25 mM Tris-HCl, pH 7.4, 250 mM NaCl, 0.5% NP40, 1.25 mM MgCl2, and 5% glycerol) from APP transgenic, APP knockout, or wild-type mice was incubated with GST-Raf-RBD purified protein coupled with GLUTATHIONE SEPHAROSE™ (Amersham) overnight at 4° C. After 24 hours, pellets were washed with Ral buffer and western blotting was conducted with anti-Ras.\nNext, we investigated whether BTA-EG4 can alter Ras activity in APP KO mice by injecting control or BTA-EG4 for 2 weeks. […] Further, we examined the effect of BTA-EG4 on downstream Ras signaling in the presence or absence of APP. For this experiment, primary hippocampal neurons were transfected with GFP and APP shRNA or APP, treated with BTA-EG4 or control, and then immunostained against p-ERK or p-CREB."}, "[3]": {"conditions": "hippocampus, 6-10 months, 30 mg/kg daily, 2 weeks"}},
  "data": [
    {"substance": "BTA-EG4", "values": [
      {"measurement": "blood brain barrier crossing", "setting": "[1]", "result": "readily crosses the blood brain barrier"},
      {"measurement": "logarithmic brain-to-plasma ratio (log BB)", "setting": "[1]; n=2 per time point, estimated value", "result": 0.43},
      {"measurement": "levels of p-Elk", "setting": "[2]; 6-10 months", "result": "did not alter"},
      {"measurement": "levels of p-Elk", "setting": "[2]; 13-16 months", "result": "did not alter"},
      {"measurement": "levels of p-ERK and ERK", "setting": "[2]; cortex and hippocampus, 6-10 months, 30 mg/kg daily, 2 weeks", "result": "did not have altered levels"},
      {"measurement": "levels of AMPA receptor subunits", "setting": "[2]; cortex and hippocampus, 13-16 months", "result": "no statistically significant change"},
      {"measurement": "GluA2 levels", "setting": "[2]; cortex, 6-10 months, 30 mg/kg daily, 2 weeks", "result": "only a trend of an increase"},
      {"measurement": "GluA1 levels", "setting": "[2]; [3]", "result": "without a significant change"},
      {"measurement": "GluA2 levels", "setting": "[2]; [3]", "result": "increased"},
      {"measurement": "levels of RasGRF1", "setting": "RasGRF1, p-ERK, p-CREB; 24 h", "result": "increased"},
      {"measurement": "phosphorylation of CREB", "setting": "RasGRF1, p-ERK, p-CREB; 24 h", "result": "increased"},
      {"measurement": "phosphorylation of ERK", "setting": "RasGRF1, p-ERK, p-CREB; 24 h", "result": "increased"},
      {"measurement": "total ERK or CREB levels", "setting": "RasGRF1, p-ERK, p-CREB; 24 h", "result": "without altering"},
      {"measurement": "RasGRF1", "setting": "RasGRF1, p-ERK, p-CREB; knockdown of APP", "result": "did not increase"},
      {"measurement": "p-CREB", "setting": "RasGRF1, p-ERK, p-CREB; knockdown of APP", "result": "ineffective"},
      {"measurement": "p-ERK", "setting": "RasGRF1, p-ERK, p-CREB; knockdown of APP", "result": "ineffective"},
      {"measurement": "RasGRF1", "setting": "RasGRF1, p-ERK, p-CREB; overexpression of APP", "result": "significantly increased"},
      {"measurement": "p-CREB", "setting": "RasGRF1, p-ERK, p-CREB; overexpression of APP", "result": "significantly increased"},
      {"measurement": "p-ERK", "setting": "RasGRF1, p-ERK, p-CREB; overexpression of APP", "result": "significantly increased"},
      {"measurement": "amount of active Ras", "setting": "Ras; 30 mg/kg i.p., 2 weeks, CTRL (C)=100±1.22%, n=5", "result": "03.2±1.26", "unit": "%"},
      {"measurement": "Ras activity", "setting": "Ras; injected for 2 weeks", "result": "did not have altered"}
    ]}
  ]
}
